Test results: PubChem BioAssay AID328 (DTP/NCI, 2004)
Where “and” joins values, the source holds several entries; their conditions need not be identical. Identical values can stand only once. Inconclusive results and toxic doses are left out.

System: BDF1 mice, P388 leukemia ip, median survival T/C
Test: NCI In Vivo Anticancer Drug Screen. Data for tumor model P388 Leukemia (intraperitoneal) in B6D2F1 (BDF1) mice
Conditions: endpoint: median survival time, higher = longer survival
Method in brief: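 Survival ratio, drug arm over vehicle arm, in mice with a transplanted tumour.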

[1] = dose: 25.0 mg/kg/injection, schedule: Q01DX009 (ip), vehicle: saline
[2] = dose: 50.0 mg/kg/injection, schedule: Q01DX009 (ip), vehicle: saline
[3] = dose: 100.0 mg/kg/injection, schedule: Q01DX009 (ip), vehicle: saline
[4] = dose: 100.0 mg/kg/injection, schedule: Q04DX003 (ip), vehicle: saline
[5] = dose: 200.0 mg/kg/injection, schedule: Q04DX003 (ip), vehicle: saline
[6] = dose: 12.5 mg/kg/injection, schedule: Q01DX009 (ip), vehicle: saline
[7] = dose: 100.0 mg/kg/injection, schedule: Q01DX009 (ip), vehicle: saline with Tween-80
[8] = dose: 100.0 mg/kg/injection, schedule: Q04DX003 (ip), vehicle: saline with Tween-80
[9] = dose: 200.0 mg/kg/injection, schedule: Q01DX009 (ip), vehicle: saline with Tween-80
[10] = dose: 200.0 mg/kg/injection, schedule: Q04DX003 (ip), vehicle: saline with Tween-80
[11] = dose: 400.0 mg/kg/injection, schedule: Q04DX003 (ip), vehicle: saline with Tween-80
[12] = dose: 50.0 mg/kg/injection, schedule: Q01DX009 (ip), vehicle: saline with Tween-80
[13] = dose: 400.0 mg/kg/injection, schedule: Q01DX009 (ip), vehicle: saline with Tween-80
[14] = dose: 12.5 mg/kg/injection, schedule: Q04DX002 (ip), vehicle: saline
[15] = dose: 25.0 mg/kg/injection, schedule: Q04DX003 (ip), vehicle: saline
[16] = dose: 50.0 mg/kg/injection, schedule: Q04DX003 (ip), vehicle: saline
[17] = dose: 200.0 mg/kg/injection, schedule: Q01DX009 (ip), vehicle: saline

With `O=C(CN1CC1)NCCCCCCCCCNC(=O)CN1CC1` the T/C (dose: 8.0 mg/kg/injection, schedule: Q04DX003 (ip), vehicle: saline) was 122 % of control, the T/C (dose: 12.0 mg/kg/injection, schedule: Q04DX003 (ip), vehicle: saline) was 122 % of control and the T/C (dose: 18.0 mg/kg/injection, schedule: Q04DX003 (ip), vehicle: saline) was 122 % of control. The T/C (dose: 18.75 mg/kg/injection, schedule: Q04DX003 (ip), vehicle: saline sonified) was 218 % of control and the T/C (dose: 37.5 mg/kg/injection, schedule: Q04DX003 (ip), vehicle: saline sonified) was 172 % of control.
`C#CC(C)OCC(O)CCl` (stereo not given) was tested, and the T/C [1] was 100 % of control, the T/C [2] was 118 % of control and the T/C [3] was 109 % of control. For the same compound, the T/C [4] was 108 % of control, the T/C [5] was 104 % of control and the T/C (dose: 400.0 mg/kg/injection, schedule: Q04DX003 (ip), vehicle: saline) was 108 % of control.
In the case of `CCCCCCCCCCC[N+](C)(C)CCCCCC[N+](C)(C)CCCCCCCCCCC`, the T/C (dose: 1.56 mg/kg/injection, schedule: Q01DX009 (ip), vehicle: saline) is reported as 90 % of control and 108 % of control, the T/C (dose: 3.12 mg/kg/injection, schedule: Q01DX009 (ip), vehicle: saline) is reported as 103 % of control and the T/C (dose: 3.13 mg/kg/injection, schedule: Q01DX009 (ip), vehicle: saline) is reported as 102 % of control and 118 % of control. The T/C (dose: 6.25 mg/kg/injection, schedule: Q01DX009 (ip), vehicle: saline) was 115 % of control and 124 % of control and the T/C [6] was 93 % of control and 109 % of control.
In the case of `COc1cc2oc3c(c(=O)c2c(O)c1/C=C/C(C)C)CCC(C)(C)Oc1cc(O)ccc1-3`, the T/C (dose: 3.13 mg/kg/injection, schedule: Q01DX009 (ip), vehicle: Klucel (hydroxypropylcellulose) (HPC)) is reported as 96 % of control, the T/C (dose: 6.25 mg/kg/injection, schedule: Q01DX009 (ip), vehicle: Klucel (hydroxypropylcellulose) (HPC)) is reported as 94 % of control and the T/C (dose: 12.5 mg/kg/injection, schedule: Q01DX009 (ip), vehicle: Klucel (hydroxypropylcellulose) (HPC)) is reported as 94 % of control. The T/C (dose: 25.0 mg/kg/injection, schedule: Q01DX009 (ip), vehicle: Klucel (hydroxypropylcellulose) (HPC)) was 103 % of control.
`O[C@@H]1CCCC[C@@H]1n1cnc2c(=S)nc[nH]c21` was tested, and the T/C [7] was 92 % of control, the T/C [8] was 100 % of control and the T/C [9] was 96 % of control. The T/C [10] was 104 % of control and the T/C [11] was 100 % of control.
In the case of `[NH2-].[NH2-].[NH2-].[NH2-].[Pt+4]`, the T/C (dose: 12.5 mg/kg/injection, schedule: Q01DX009 (ip), vehicle: saline with Tween-80) is reported as 90 % of control, the T/C (dose: 25.0 mg/kg/injection, schedule: Q01DX009 (ip), vehicle: saline with Tween-80) is reported as 100 % of control and the T/C [12] is reported as 90 % of control.
For `CCCCCCCCCCCCCCCC(=O)Oc1ccc(/C(CC)=C(/CC)c2ccc(OC(=O)CCCCCCCCCCCCCCC)cc2)cc1`, the T/C [8] was 90 % of control, the T/C [10] was 89 % of control and the T/C [11] was 89 % of control.
In the case of `CCOC(=O)C1=C(O)c2c(sc(C)c2-c2ccccc2)N(S(=O)(=O)c2ccc(C)cc2)CC1`, the T/C [7] is reported as 100 % of control, the T/C [9] is reported as 109 % of control and the T/C [13] is reported as 95 % of control.
In the case of `ClCCN(CCCl)CCOc1ccc(-c2nc3ccccc3[nH]2)cc1`, the T/C [14] is reported as 189 % of control.
For `CN1NCc2cncnc21`, the T/C [12] was 90 % of control, the T/C [7] was 99 % of control and the T/C [9] was 99 % of control. For the same compound, the T/C [13] was 90 % of control.
For `C[C@]12CCC(=O)C=C1CC[C@@H]1[C@@H]2[C@@H](O)C[C@@]2(C)[C@H]1CC[C@]2(O)C(=O)COC(=O)CCC(=O)O`, the T/C (dose: 50.0 mg/kg/injection, schedule: Q01DX009 (sc), vehicle: steriod suspending solution) was 111 % of control, the T/C (dose: 100.0 mg/kg/injection, schedule: Q01DX009 (sc), vehicle: steriod suspending solution) was 111 % of control and the T/C (dose: 100.0 mg/kg/injection, schedule: Q04DX003 (sc), vehicle: steriod suspending solution) was 100 % of control. The T/C (dose: 200.0 mg/kg/injection, schedule: Q01DX009 (sc), vehicle: steriod suspending solution) was 116 % of control, the T/C (dose: 200.0 mg/kg/injection, schedule: Q04DX003 (sc), vehicle: steriod suspending solution) was 104 % of control and the T/C (dose: 400.0 mg/kg/injection, schedule: Q01DX009 (sc), vehicle: steriod suspending solution) was 111 % of control. The T/C (dose: 400.0 mg/kg/injection, schedule: Q04DX003 (sc), vehicle: steriod suspending solution) was 100 % of control.
In the case of `COC1C(C)OC(OC2CC(C)(O)Cc3cc4c(c(O)c32)C(=O)c2c(O)cc3c(c2C4=O)OC2OC3(C)C(O)C(N(C)C)C2O)C(OC)C1(C)OC` (stereo not given), the T/C (dose: 1.25 mg/kg/injection, schedule: Q01DX009 (ip), vehicle: other) is reported as 122 % of control, the T/C (dose: 4.32 mg/kg/injection, schedule: Q04DX003 (ip), vehicle: water) is reported as 169 % of control and the T/C (dose: 5.0 mg/kg/injection, schedule: Q01DX009 (ip), vehicle: other) is reported as 154 % of control. For the same compound, the T/C (dose: 7.2 mg/kg/injection, schedule: Q04DX003 (ip), vehicle: water) was 183 % of control, the T/C (dose: 10.0 mg/kg/injection, schedule: Q01DX009 (ip), vehicle: other) was 151 % of control and the T/C (dose: 20.0 mg/kg/injection, schedule: Q04DX003 (ip), vehicle: water) was 111 % of control.
`C[N+]1(C)N=C([O-])N(CCCCCCN2C(=O)[N+](C)(C)N=C2[O-])C1=O` was tested, and the T/C (dose: 100.0 mg/kg/injection, schedule: Q04DX003 (ip), vehicle: suspension in saline) was 94 % of control, the T/C (dose: 200.0 mg/kg/injection, schedule: Q04DX003 (ip), vehicle: suspension in saline) was 96 % of control and the T/C (dose: 400.0 mg/kg/injection, schedule: Q04DX003 (ip), vehicle: suspension in saline) was 98 % of control.
For `C#CC(C)(C)OCC(CCl)OC(N)=O` (stereo not given), the T/C (dose: 50.0 mg/kg/injection, schedule: Q04DX003 (ip), vehicle: saline with Tween-80) was 105 % of control, the T/C [8] was 110 % of control and the T/C [10] was 100 % of control. The T/C [11] was 115 % of control.
`O=[N+]([O-])c1cc([N+](=O)[O-])c2ccc(S(=O)(=O)O)cc2c1O` was tested, and the T/C (dose: 6.25 mg/kg/injection, schedule: Q04DX002 (ip), vehicle: saline) was 106 % of control, the T/C [14] was 101 % of control and the T/C (dose: 25.0 mg/kg/injection, schedule: Q04DX002 (ip), vehicle: saline) was 105 % of control.
For `O=C(/C=C/c1ccc2c(c1)OCO2)/C=C/c1ccc2c(c1)OCO2`, the T/C [6] was 101 % of control, the T/C (dose: 12.5 mg/kg/injection, schedule: Q04DX003 (ip), vehicle: saline) was 105 % of control and the T/C [1] was 96 % of control. The T/C [15] was 112 % of control, the T/C [16] was 114 % of control and the T/C [4] was 114 % of control. For the same compound, the T/C [17] was 92 % of control and the T/C [5] was 114 % of control.
`CCOC(=O)/C(=C/C(C#N)=C/N(C)C)CC` was tested, and the T/C (dose: 100.0 mg/kg/injection, schedule: Q01DX001 (ip), vehicle: other) was 100 % of control, the T/C (dose: 200.0 mg/kg/injection, schedule: Q01DX001 (ip), vehicle: other) was 109 % of control and the T/C (dose: 400.0 mg/kg/injection, schedule: Q01DX001 (ip), vehicle: other) was 109 % of control.
With `CCOC(=O)C(C)(Br)C(=O)OCC` the T/C [15] was 109 % of control, the T/C [16] was 100 % of control and the T/C [4] was 113 % of control.
For `Nc1nc(=S)c2ncn(C3OC(COC(=O)c4ccc(Cl)cc4)C(OC(=O)c4ccc(Cl)cc4)C3OC(=O)c3ccc(Cl)cc3)c2[nH]1` (stereo not given), the T/C (dose: 132.0 mg/kg/injection, schedule: Q04DX003 (ip), vehicle: saline with Tween-80) was 118 % of control, the T/C [9] was 100 % of control and the T/C (dose: 300.0 mg/kg/injection, schedule: Q04DX003 (ip), vehicle: saline with Tween-80) was 122 % of control.
`Cc1ccc(S(=O)(=O)NCCCCCC(=O)OCc2ccccc2)cc1` was tested, and the T/C [2] was 99 % of control, the T/C [3] was 108 % of control and the T/C [17] was 100 % of control.
`O=C(O)c1cc(C(Cl)(Cl)Cl)ccc1C(Cl)(Cl)Cl` was tested, and the T/C (dose: 100.0 mg/kg/injection, schedule: Q04DX003 (ip), vehicle: saline sonified) was 95 % of control and the T/C (dose: 400.0 mg/kg/injection, schedule: Q04DX003 (ip), vehicle: saline sonified) was 104 % of control.
With `O=C(CSc1ncnc2nc[nH]c12)c1ccccc1` the T/C [7] was 104 % of control, the T/C [8] was 86 % of control and the T/C [9] was 104 % of control. For the same compound, the T/C [10] was 100 % of control, the T/C [13] was 100 % of control and the T/C [11] was 91 % of control.
